From US20090209525A1, “ENABLING METHODS TO IDENTIFY ALLOSTERIC MODULATORS OF RECEPTOR ACTIVITY” (priority 2006, published 2009)
Where a chain is given by its changes, count along the chain named. Where “and” joins values, the source holds several entries; their conditions need not be identical. Equal entries are not always repeated. Where two headings read alike, the source gives them in different places.

Assays:
[1] = target: T1, rat M1 W101A receptor (Rattus norvegicus, UniProt P08482, W101A); experiment: R-SAT functional assay, W101A mutant; type: cell-based; settings: for increase in potency relative to wild-type: R-SAT; for Shift: EC50 W101A divided by EC50 wild-type; for Eff (%): maximum response, normalized; for EC50: read-out: pEC50 (converted)
T1 construct: expressed in transfected cells
T1 sequence (P08482 1-460 W101A): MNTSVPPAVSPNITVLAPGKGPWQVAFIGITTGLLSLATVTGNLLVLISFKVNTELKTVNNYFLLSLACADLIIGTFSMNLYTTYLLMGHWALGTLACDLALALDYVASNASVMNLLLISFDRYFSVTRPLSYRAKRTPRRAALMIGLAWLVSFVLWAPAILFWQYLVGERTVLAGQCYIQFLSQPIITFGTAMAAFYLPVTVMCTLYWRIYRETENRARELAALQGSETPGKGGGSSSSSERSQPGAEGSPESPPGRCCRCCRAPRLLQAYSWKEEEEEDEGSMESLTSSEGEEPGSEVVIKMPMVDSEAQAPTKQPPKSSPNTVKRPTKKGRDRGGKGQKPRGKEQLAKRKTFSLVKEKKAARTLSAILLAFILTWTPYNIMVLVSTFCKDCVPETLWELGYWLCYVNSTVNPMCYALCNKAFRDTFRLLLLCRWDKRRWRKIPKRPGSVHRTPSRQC
Method: (§1) Cells are co-transfected for 18 h with DMEM containing 0.08 micrograms/ml of an expression vector for the expression of the mutant receptor and 0.3 micrograms/ml pSI-Bgal (Promega, Madison Wis.), and 0.5% v/v Polyfect (Qiagen, Valencia Calif.), as recommended by the manufacturer. On day three, the medium is replaced with DMEM containing 1% PSG, 0.5% calf serum, 2% cyto-sf3 (Kemp Biotechnologies, Frederick, Md.), and varying concentrations of the compounds to be tested. Cells are grown in a humidified atmosphere with 5% ambient CO2 for 5 days. The media is removed from the plates, and beta-galactosidase activity is measured by the addition of o-nitrophenyl -d-galactopyranoside in phosphate-buffered saline with 5% Nonidet P-40. […] The following equation is fitted to the data using GraphPad Prism software (San Diego, Calif.):
(§2) NIH-3T3 cells were grown in 96-well tissue culture plates to 70 to 80% confluence in Dulbecco's modified essential media (DMEM) supplemented with 100 units/ml penicillin, 100 micrograms/ml streptomycin, 0.3 mg/ml L-glutamine (1% PSG, GIBCO) and 10% calf serum (Sigma-Aldrich). Cells were transfected for 18 h with DMEM containing 0.08 micrograms/ml receptor DNA and 0.3 micrograms/ml pSI-Bgal (Promega, Madison Wis.), 0.5% v/v Polyfect (Qiagen, Valencia Calif.). Medium was replaced with DMEM containing 1% PSG, 0.5% calf serum, 2% cyto-sf3 (Kemp Biotechnologies, Frederick, Md.), and varying concentrations of ligand. […] Cells were grown in a humidified atmosphere with 5% ambient CO2 for 5 days. Medium was removed from the plates, and beta-galactosidase activity was measured by the addition of o-nitrophenyl -d-galactopyranoside in phosphate-buffered saline with 5% Nonidet P-40.
(§3) Receptor Selection and Amplification (R-SAT™) Assays: R-SAT™ functional assays were carried out as follows. NIH-3T3 cells were grown in 96-well tissue culture plates to 70 to 80% confluence in Dulbecco's modified essential media (DMEM) supplemented with 100 units/ml penicillin, 100 micrograms/ml streptomycin, 0.3 mg/ml L-glutamine (1% PSG, GIBCO) and 10% calf serum (Sigma-Aldrich). Cells were transfected for 18 h with DMEM containing 0.08 micrograms/ml receptor DNA and 0.3 micrograms/ml pSI-Bgal (Promega, Madison Wis.), 0.5% v/v Polyfect (Qiagen, Valencia Calif.). The transfected cells were frozen away. Cells were thawed and added to 96 well plates with DMEM containing 1% PSG, 0.5% calf serum, 2% cyto-sf3 (Kemp Biotechnologies, Frederick, Md.), and varying concentrations of ligand.
(§4) In an effort to further characterize monoamine modulators, we used a panel of mutant muscarininc M1 receptors to analyze the activity and potency of orthosteric modulators and various allosteric modulators at those receptors.

[2] = target: T2, rat M1 wild-type receptors (Rattus norvegicus, UniProt P08482); experiment: R-SAT functional assay, wild-type receptor; type: cell-based; settings: for EC50: read-out: pEC50 (converted); for Shift: EC50 divided by EC50 for wild-type (reference)
T2 construct: expressed in transfected cells
T2 sequence (P08482 1-460): T1 sequence (P08482 1-460 W101A) with A101W
Method: as §1, §2, §3, §4

[3] = Table 4, M1 W101A, maximum response relative to xanomeline
[4] = Table 10, M1 W101A, maximum response relative to AC-42
[5] = Table 2, maximum response relative to maximum response of carbachol
[6] = Table 3, M1 WT, maximum response, normalized
[7] = Table 4, M1 wild type, maximum response relative to xanomeline
[8] = Table 10, M1 Wild-Type, NA = non-active
[9] = Table 10, M1 Wild-Type, maximum response relative to carbachol

Shift ([1]; Table 3)	Eff (%) ([1]; Table 3, W101A)	EC50 ([1]; Table 3, W101A) [nM]	% Eff [1, 3] [%]	EC50 ([1]; Table 4, M1 W101A) [nM]	% Eff [1, 4] [%]	EC50 ([1]; Table 10, M1 W101A) [nM]	Eff (%) [2, 5] [%]	EC50 ([2]; Table 2, mean +/- S.E.M., n=5) [nM]	Shift ([2]; Table 3)	Eff (%) [2, 6] [%]	EC50 ([2]; Table 3, M1 WT) [nM]	% Eff [2, 7] [%]	EC50 ([2]; Table 4, M1 wild type) [nM]	EC50 [2, 8] [nM]	% Eff [2, 9] [%]	SMILES	increase in potency relative to wild-type ([1]; W101A)
0.03	100 ± 8	0.398	98	0.2	140	3.16	89 ± 11	15.8	1	89 ± 6	15.8	59	25.1	25.1	109	CCCCC1CCN(CCCN2C(=O)COc3cc(F)ccc32)CC1 [AC-260584, 4-[3-(4-Butyl-piperidin-1-yl)-propyl]-7-fluoro-4H-benzo [1,4]oxazin-3-one]	33 fold and 30 fold
5	88 ± 12	200	72	39.8	93	100	79 ± 14	50.1	1	78 ± 4	50.1	43	31.6	100	93	Clc1ccc2c(c1)N=C(N1CCNCC1)c1ccccc1N2 [NDMC, 8-chloro-11-(1-piperazinyl)-5H-dibenzo [b,e] [1,4] diazepine]	–

SMILES	Shift ([1]; Table 3)	Eff (%) ([1]; Table 3, W101A)	EC50 ([1]; Table 3, W101A) [nM]	% Eff [1, 3] [%]	EC50 ([1]; Table 4, M1 W101A) [nM]	% Eff [1, 4] [%]	EC50 ([1]; Table 10, M1 W101A) [nM]	Eff (%) [2, 5] [%]	EC50 ([2]; Table 2, mean +/- S.E.M., n=5) [nM]	Shift ([2]; Table 3)	Eff (%) [2, 6] [%]	EC50 ([2]; Table 3, M1 WT) [nM]	% Eff [2, 7] [%]	EC50 ([2]; Table 4, M1 wild type) [nM]	EC50 [2, 8] [nM]	% Eff [2, 9] [%]	increase in potency relative to wild-type ([1]; W101A)
CCCCC1CCN(CCCC(=O)c2ccccc2C)CC1 [AC-42, 4-n-butyl-1-[4-(2-methylphenyl)-4-oxo-1-butyl] piperidine hydrogen chloride]	0.02	95 ± 10	3.16	97	7.94	111	7.94	48 ± 11	158	1	47 ± 5	158	24	–	200	56	50 fold
